Reference: patent publication US20170100433A1, “MODIFIED NATURAL KILLER CELLS HAVING ANTI-FUGETACTIC PROPERTIES AND USES THEREOF” (THE GENERAL HOSPITAL CORPORATION DBA MASSACHUSETTS GENERAL …, priority 2015, published 2017)

What was measured:
human CD3+ T cells [1] = settings: CI of 1.0 is the control, triplicate wells
Experimental: Freshly prepared and purified human CD3^+ T cells were prepared from healthy donor peripheral blood. 20,000 T cells were loaded into the upper chamber of the Transwell in control, chemotactic or fugetactic settings with AMD3100 at concentrations between 0.1 μM and 10 μM. Migrated cells were counted in the lower chamber and migration quantitated as previously described. Vianello et al. The Journal of Immunology, 2006, 176: 2902-2914; Righi et al., Cancer Res.; 71(16); 5522-34, each of which is incorporated herein in its entirety.
All wells were run in triplicate.

human CD3+ T cells [2] = settings: T cells incubated with 0.01 μM to 10 mM AMD3100; anti-fugetactic at lower, fugetactic at higher concentrations; cells harvested after 3 h
Experimental: For quantitative transmigration assays, purified human CD3^+ T cells (approximately 2×10^4 cells) are added to the upper chamber of a Transwell® insert in each well, to a total volume of 150 μl of Iscove's modified medium. […] To determine the anti-fugetactic concentration of AMD3100, the T cells are incubated with 0.01 μM to 10 mM AMD3100 prior to addition to the chamber. Cells are harvested from the lower chamber after 3 h, and cell counts are performed using a hemocytometer.

c1cc(CN2CCCNCCNCCCNCC2)ccc1CN1CCCNCCNCCCNCC1 [AMD3100, 1,1′-[1,4-phenylenebis(methylene)]bis [1,4,8,11-tetraazacyclotetradecane]]
CI (chemotactic index), chemotactic response (human CD3+ T cells [1]; chemotactic setting, AMD3100 at 1 μM, FIG. 1): 2.3
CI (chemotactic index), fugetactic response (human CD3+ T cells [1]; fugetactic setting, AMD3100 at 0.1 μM, FIG. 2): 1.6
Effect of AMD3100 pre-incubation on T cell migration (human CD3+ T cells [2]): bimodal effect
